According to US20230248744A1, “25-HYDROXYVITAMIN D2 AND/OR D3 FOR USE IN OBESITY” (CARBOGEN AMCIS B.V., priority 2020, published 2023):
Where two headings read alike, the source gives them in different places.

Experiment: Double-blind randomized crossover pharmacokinetic study, single oral 900 μg vitamin D3 or 25(OH)D3
Format: in vivo, human
Conditions: for Cmax / Tmax / concentration at 14 days / half-life / AUC: both sexes, human, in vivo, po, single oral 900 μg, mean ± SEM; for Cmax / Tmax / half-life / AUC: 900 ug; for concentration at 14 days: 900 μg, read-out: Ctrough (trough level at day 14); for half-life: read-out: T1/2 (elimination half-life) (converted); for blood level of vitamin D3 relative to Cmax: FIG. 4a, turning point after about 2% days, single oral 900 μg vitamin D3
Experimental: The conclusions as presented herein are based on the following experiments: In a double-blinded cross-over study single high dosages (900 μg total in two soft gel capsules containing 450 μg) of either vitamin D3 or 25(OH)D3 were administered to vitamin D-deficient volunteers including healthy controls as well as subjects with a history of malabsorption. At the outset, the BMI was determined. Blood samples were then taken at baseline and at 2, 4, 6, 8, and 12 hours as well as 1, 2, 3, 7, and 14 days after administration (FIG. 2). All the samples were analyzed for their contents in vitamin D3 per se as well as 25(OH)D3. […] In addition, peak levels were more rapidly reached with 25(OH)D3 than with vitamin D3 (see FIG. 5). The immediate increase in serum 25(OH)D3 compared to the delayed increase observed with vitamin D3 supports the concept that 25(OH)D3 is being rapidly absorbed from the small intestine into the portal circulation, whereas vitamin D3 first needs to be incorporated into the chylomicrons which are absorbed into the lymphatic system.
The pharmacokinetic parameters of orally administered 25(OH)D3 and vitamin D3 (both provided for formulation in form of visually identical soft-gel pills) were studied based on the corresponding serum concentration-time curves in healthy adults and adults with a history of intestinal malabsorption (see FIG. 2). Cinical safety has been evaluated by monitoring serum calcium, phosphorus, parathyroid hormone (PTH) and 25(OH)D levels at the beginning and end of the study. Furthermore, the distribution of supplemented 25(OH)D3 (or 25(OH)D2) into adipose tissue and the role it is playing there was also studied.
Serum levels of calcium, phosphorus, albumin, creatinine and intact parathyroid hormone (iPTH) were determined at baseline and at the end of each 14-day pharmacokinetic study (see Table 4). The pharmacokinetic parameters have been determined by evaluating the serum concentration-time curves in patients with malabsorption syndrome and healthy controls (Tables 5 and 6).
The primary outcomes of the study are the serum pharmacokinetic parameters of 25(OH)D3 and vitamin D3 after a single oral administration of 900 μg of each in a double-blind randomized crossover study.
Adult patients (18 years and older) with a history of intestinal malabsorption (n=10) and healthy adult volunteers (n=10); (of both sexes and all ethnicities) has been recruited in this randomized double-blinded crossover study. The BMI has been determined and recorded at baseline. All subjects have been prescreened for 25(OH)D levels to include subjects with 25(OH)D<30 ng/mL. The subjects have been randomized to receive two oral doses of 450 μg taken simultaneously (total 900 μg) of either vitamin D3 or 25(OH)D3. Blood samples were taken at baseline and at 2, 4, 6, 8, 12 hours and days 1, 2, 3, 7 and 14. There was a two weeks washout period before the subject received in a double blinded manner, two oral doses of 450 μg taken simultaneously (total 900 μg) of either 25(OH)D3 or vitamin D3 (depending on which one they took in the randomization) any time after the 2 week washout. Blood samples were taken at baseline and at 2, 4, 6, 8, 12 hours and days 1, 2, 3, 7 and 14 days. Serum levels of calcium, phosphorus, albumin, creatinine, and intact parathyroid hormone (iPTH) were obtained at baseline and at day 14 for each arm (or within a reasonable time if the study participant was unable to come on the exact day).
The individuals participating in the study had, after signing a consent form, been randomized by a computer randomization chart in a blinded manner to receive two oral doses of 450 μg taken simultaneously (total 900 μg) of either vitamin D3 or 25(OH)D3. Blood samples have been taken at baseline and at 2, 4, 6, 8, 12 hours and days 1, 2, 3, 7 and 14. […]

[1] = healthy participants with higher BMI (N = 5)
[2] = healthy participants with lower BMI (N = 5)
[3] = patients with fat malabsorption (N = 6)

Question: With C=C1CC[C@H](O)C/C1=C/C=C1\CCC[C@]2(C)[C@@H]([C@H](C)CCCC(C)C)CC[C@@H]12 [vitamin D3, cholecalciferol] as the molecule, how does the “time at which the peak of the serum concentration is reached” value (FIG. 5, oral 900 μg) read?
Answer: about 12 hours

Question: And the “bioavailability in subjects with a history of vitamin D/fat malabsorption” value (after administration of the respective product, FIGS. 3a and b)?
Answer: reduced

Question: And the Cmax (healthy participants (N = 10))?
Answer: 53.5 ± 6 ng/mL

Question: What about the Tmax (healthy participants (N = 10)) of the same molecule?
Answer: 10.4 ± 0.7 h

Question: What about the concentration at 14 days (healthy participants (N = 10)) of the same molecule?
Answer: 0.3 ± 0.3 ng/mL

Question: What about the half-life (healthy participants (N = 10)) of the same molecule?
Answer: 31.4 ± 3.3 h

Question: What about the AUC (healthy participants (N = 10), serum level of the administered substance) of the same molecule?
Answer: 3260 ± 496 ng·h/mL

Question: What about the AUC [1] of the same molecule?
Answer: 2090 ± 547 ng·h/mL

Question: What about the Cmax [1] of the same molecule?
Answer: 44.4 ± 9.3 ng/mL

Question: And the Tmax [1]?
Answer: 9.6 ± 1 h

Question: What about the concentration at 14 days [1] of the same molecule?
Answer: 0 ng/mL

Question: And the half-life [1]?
Answer: 23.8 ± 3.1 h

Question: What about the AUC [2] of the same molecule?
Answer: 4430 ± 350 ng·h/mL

Question: What about the Cmax [2] of the same molecule?
Answer: 62.6 ± 5.7 ng/mL

Question: And the Tmax [2]?
Answer: 11.2 ± 0.8 h

Question: What about the concentration at 14 days [2] of the same molecule?
Answer: 0.6 ± 0.6 ng/mL

Question: What about the half-life [2] of the same molecule?
Answer: 39 ± 3.4 h

Question: And the Cmax [3]?
Answer: 24.3 ± 8.4 ng/mL

Question: And the Tmax [3]?
Answer: 11.3 ± 0.7 h

Question: What about the concentration at 14 days [3] of the same molecule?
Answer: 0.1 ± 0.1 ng/mL

Question: What about the half-life [3] of the same molecule?
Answer: 28.7 ± 1.5 h

Question: And the AUC (patients with fat malabsorption (N = 6), serum level of the administered substance)?
Answer: 1180 ± 425 ng·h/mL

Question: What about the “blood level of vitamin D3 relative to Cmax” value (high BMI subjects) of the same molecule?
Answer: ≈ 23 % of Cmax

Question: And the “blood level of vitamin D3 relative to Cmax” value (low BMI (normal) subjects)?
Answer: 41 % of Cmax and ≈ 41 % of Cmax
